# Tests used:
# Format in all cases: ADME, organism-based
# [1] = Percentage of administered dose recovered as unchanged drug in urine within 48 h of drug administration; design: dosed compound id 2.58283e+06, dosed compound name Mitoxantrone; conditions: human, read-out: Compound recovery
# [2] = Percentage of administered dose recovered as monocarboxylic acid derivative of mitoxantrone in urine within 48 h of drug administration; design: dosed compound id 2.58283e+06, dosed compound name Mitoxantrone; conditions: human, in vivo
# [3] = Percentage of administered dose recovered as unchanged drug in urine after intravenous administration; design: dosed compound id 2.58283e+06, dosed compound name Idarubicin, route intravenous; conditions: human, read-out: Compound recovery
# [4] = Percentage of administered dose recovered as unchanged drug in urine after oral administration; design: dosed compound id 2.58283e+06, dosed compound name Idarubicin, route oral; conditions: human, read-out: Compound recovery
# [5] = Percentage of administered dose recovered as dicarboxylic acid derivative of mitoxantrone in urine within 48 h of drug administration; conditions: human, in vivo
# [6] = Percentage of administered dose recovered as idarubicinol in urine after intravenous administration; design: dosed compound id 2.58283e+06, dosed compound name Idarubicin, route intravenous; conditions: human, in vivo
# [7] = Percentage of administered dose recovered as idarubicinol in urine after oral administration; design: dosed compound id 2.58283e+06, dosed compound name Idarubicin, route oral; conditions: human, in vivo
smiles,measurement,setting,value
O=C1c2c(O)ccc(O)c2C(=O)c2c(NCCNCCO)ccc(NCCNCCO)c21 [MITOXANTRONE],dose excreted at 48 h,[1],4.4%
O=C(O)CNCCNc1ccc(NCCNCCO)c2c1C(=O)c1c(O)ccc(O)c1C2=O,Compound recovery,[2],0.5%
CC(=O)[C@]1(O)Cc2c(O)c3c(c(O)c2[C@@H](O[C@H]2C[C@H](N)[C@H](O)[C@H](C)O2)C1)C(=O)c1ccccc1C3=O [IDARUBICIN],dose excreted,[3],2%
same,dose excreted,[4],0.6%
O=C(O)CNCCNc1ccc(NCCNCC(=O)O)c2c1C(=O)c1c(O)ccc(O)c1C2=O,Compound recovery,[5],0.3%
CC(O)[C@]1(O)Cc2c(O)c3c(c(O)c2[C@@H](O[C@H]2C[C@H](N)[C@H](O)[C@H](C)O2)C1)C(=O)c1ccccc1C3=O (some centres not stated),Compound recovery,[6],15%
same,Compound recovery,[7],5%

# — ChEMBL document CHEMBL3706496, “Therapeutic Drugs” (1999)
